Source: article PMC8188608 (Chemical Science, 2021)
Values after ≈ are worked out from the molar mass of the structure shown.

Experiments:
mtDXPS = mtDXPS (Mycobacterium tuberculosis, UniProt P9WNS3); assay: biochemical; details: for inhib. (%) mtDXPS: at 120 μM (Table 3: concentration only given); for inhibition at 200 µM / inhibition at 120 µM: read-out: inhib. (%) mtDXPS
E. coli TolC = assay: microbe, parasite or virus in culture; type: cell-based; details: for inhibition at 50 µM / MIC: Escherichia coli; for inhibition at 50 µM: read-out: inhib. (%) growth inhibition of E. coli TolC; for MIC: read-out: MIC E. coli TolC
drDXPS [1] = target: T1, drDXPS (Deinococcus radiodurans, UniProt Q9RUB5); assay: biochemical; details: for IC50: IC50 drDXPS
T1 sequence (Q9RUB5 whole entry): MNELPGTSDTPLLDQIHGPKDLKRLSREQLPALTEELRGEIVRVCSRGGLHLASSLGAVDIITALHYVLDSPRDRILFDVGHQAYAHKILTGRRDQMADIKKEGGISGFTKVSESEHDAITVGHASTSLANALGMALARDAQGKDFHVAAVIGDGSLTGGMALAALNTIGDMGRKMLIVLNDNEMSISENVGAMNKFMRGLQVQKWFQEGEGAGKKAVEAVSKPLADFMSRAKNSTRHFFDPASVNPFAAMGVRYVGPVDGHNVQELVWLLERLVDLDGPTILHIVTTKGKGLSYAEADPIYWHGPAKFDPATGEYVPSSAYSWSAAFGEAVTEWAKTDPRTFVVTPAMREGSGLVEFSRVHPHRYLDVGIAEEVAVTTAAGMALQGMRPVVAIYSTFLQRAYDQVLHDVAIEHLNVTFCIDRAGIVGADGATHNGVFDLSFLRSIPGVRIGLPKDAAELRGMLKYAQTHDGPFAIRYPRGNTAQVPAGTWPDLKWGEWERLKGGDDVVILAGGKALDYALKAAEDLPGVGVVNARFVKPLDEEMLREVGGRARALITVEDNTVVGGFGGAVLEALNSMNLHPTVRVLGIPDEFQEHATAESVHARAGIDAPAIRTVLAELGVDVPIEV

drDXPS [2] = target: T1, drDXPS; assay: biochemical; details: for inhibition at 120 µM: read-out: inhib. (%) drDXPS, at 120 μM
drDXPS [3] = target: T1, drDXPS; type: binding
[4] = type: physicochemical; details: when added at higher concentrations
M. tuberculosis H37Rv = assay: microbe, parasite or virus in culture; type: cell-based, Mycobacterium tuberculosis; details: for anti-TB activity, head-to-head comparative analysis: 16 μM, 14 compounds tested; for MIC: Mycobacterium tuberculosis, H37RV, read-out: MIC M. tuberculosis

mtDXPS, sequence (P9WNS3 whole entry): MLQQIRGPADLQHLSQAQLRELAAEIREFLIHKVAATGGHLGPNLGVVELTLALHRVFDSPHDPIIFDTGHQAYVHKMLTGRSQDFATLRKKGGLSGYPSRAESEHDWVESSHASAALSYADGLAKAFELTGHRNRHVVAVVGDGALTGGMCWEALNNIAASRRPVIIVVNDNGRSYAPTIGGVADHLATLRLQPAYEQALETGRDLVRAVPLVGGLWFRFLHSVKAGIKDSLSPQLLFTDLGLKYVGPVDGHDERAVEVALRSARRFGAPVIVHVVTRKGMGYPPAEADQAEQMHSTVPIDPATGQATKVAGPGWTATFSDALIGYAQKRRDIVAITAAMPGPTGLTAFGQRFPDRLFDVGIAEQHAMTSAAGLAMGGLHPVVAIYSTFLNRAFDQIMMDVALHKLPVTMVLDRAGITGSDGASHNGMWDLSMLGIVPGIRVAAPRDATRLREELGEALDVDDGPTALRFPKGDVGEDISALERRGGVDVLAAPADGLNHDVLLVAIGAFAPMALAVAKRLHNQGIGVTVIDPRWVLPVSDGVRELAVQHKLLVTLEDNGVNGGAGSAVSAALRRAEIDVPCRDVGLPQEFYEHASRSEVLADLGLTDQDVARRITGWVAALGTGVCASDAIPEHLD

Row | Compound | inhibition at 50 µM (E. coli TolC) [%] | MIC (E. coli TolC) [µM] | inhibition at 120 µM (drDXPS [2]) [%] | inhibition at 120 µM (mtDXPS) [%] | also measured
1 | O=C(N/N=C/c1ccc(C(F)(F)F)nc1)c1cc2c(s1)CCCC2 [Compound 1, (E)-N'-((6-(Trifluoromethyl)pyridin-3-yl)methylene)-4,5,6,7-tetrahydrobenzo[b]thiophene-2-carbohydrazide] | – | – | – | – | IC50 (mtDXPS; IC50 mtDXPS): 78 µM; inhib. (%) growth inhibition of E. coli TolC (E. coli TolC; at 50 μM): no inhib. and n.i.; mode of inhibition (drDXPS [1]): ThDP- and pyruvate-competitive and non-competitive with respect to D/L-GAP; IC50 (drDXPS [1]; at 0.3 μM ThDP): 35 ± 10 µM; IC50 (drDXPS [1]; at 0.1 mM pyruvate): 19 ± 5 µM; IC50 (drDXPS [1]; at 0.4 mM pyruvate): 86 ± 15 µM; IC50 (drDXPS [1]; varying D/L-GAP concentrations): ~50 µM; inhibition of drDXPS (drDXPS [1]; at 5 μM ThDP): 20%; inhibition of drDXPS (drDXPS [1]; at 0.6 mM pyruvate): 32%; IC50 (drDXPS [2]; IC50 drDXPS): 51 µM
2 | FC(F)(F)c1ccc(-c2nnc(-c3cc4c(s3)CCCC4)o2)cn1 [Compound 40] | – | – | – | – | inhib. (%) growth inhibition of E. coli TolC (E. coli TolC; at 50 μM): no inhibition and n.i.; KD drDXPS (drDXPS [3]; SPR, steady-state fit): n.b.
3 | Oc1ccc(-c2nnc(CCCOc3ccc(Cl)cc3Cl)o2)c(F)c1 [Compound 41, 4-(5-(3-(2,4-dichlorophenoxy)propyl)-1,3,4-oxadiazol-2-yl)-3-fluorophenol] | 47 | – | – | – | inhib. (%) drDXPS (drDXPS [2]; at 60 μM): 48 ± 3%; IC50 (drDXPS [2]; estimated IC50 drDXPS, estimated assuming full inhibition at high concentrations): 99 µM
4 | COc1cccc(/C=N/NC(=O)CCCOc2ccc(Cl)cc2Cl)c1O [Compound 25] | – | 60 (≈ 23.8 µg/mL) | 45 | – | inhib. (%) mtDXPS (mtDXPS): n.i.
5 | O=C(COc1ccc(Cl)cc1Cl)N/N=C/c1c[nH]c2ccccc12 [Compound 9] | – | 19 ± 7 (≈ 6.88 µg/mL) | 38 | – | inhibition at 200 µM (mtDXPS): 15%
6 | Nc1ncc(/C=N/NC(=O)c2cc3c(s2)CCCC3)cn1 [Compound 3] | – | – | 15 | – | inhib. (%) growth inhibition of E. coli TolC (E. coli TolC; at 50 μM): n.i.
7 | O=C(N/N=C/c1cc2c(s1)CCCC2)c1cccs1 [Compound 7] | 57 | – | 37 | 65 | inhibition at 200 µM (mtDXPS): 65 ± 4%; aggregate formation [4]: did not induce aggregate formation; anti-TB activity, head-to-head comparative analysis (M. tuberculosis H37Rv): most active; MIC (M. tuberculosis H37Rv): > 64 µM
8 | O=C(N/N=C/c1ccc2cc[nH]c2c1)c1cc2c(s1)CCCC2 [Compound 35] | – | 16 ± 5 (≈ 5.17 µg/mL) | 62 | 30 | aggregate formation [4]: did not induce aggregate formation; anti-TB activity, head-to-head comparative analysis (M. tuberculosis H37Rv): most active; MIC (M. tuberculosis H37Rv): 64 µM (≈ 20.7 µg/mL)
9 | O=C(CCCOc1ccc(Cl)cc1Cl)N/N=C/c1cccs1 [Compound 16] | 28 | – | 4 | – | inhib. (%) mtDXPS (mtDXPS): n.i.
10 | O=C(CCCOc1ccc(Cl)cc1Cl)N/N=C/c1cccc2[nH]ncc12 [Compound 22] | – | – | 47 | – | inhib. (%) mtDXPS (mtDXPS): n.i.; inhib. (%) growth inhibition of E. coli TolC (E. coli TolC; at 50 μM): n.i.
11 | O=C(COc1ccc(Cl)cc1Cl)N/N=C/c1cc2c(s1)CCCC2 [Compound 6] | – | – | – | 46 | inhib. (%) growth inhibition of E. coli TolC (E. coli TolC; at 25 μM): n.i.^#; IC50 (drDXPS [2]; IC50 drDXPS): 101 µM
12 | O=C(CCCOc1ccc(Cl)cc1Cl)NCCc1ccc(O)cc1F [Compound 39] | 83 | – | 37 | – | fold decrease in binding affinity for drDXPS (drDXPS [3]): ~2 fold
13 | O=C(NCCc1ccc(C(F)(F)F)nc1)c1cc2c(s1)CCCC2 [Compound 38] | 19 | – | 25.8 | – | –
14 | O=C(CCCOc1ccc(Cl)cc1Cl)N/N=C/c1ccc2cc[nH]c2c1 [Compound 26] | – | 14 ± 4 (≈ 5.46 µg/mL) | 58 | 5 | –
15 | O=C(CCCOc1ccc(Cl)cc1Cl)N/N=C/c1ccc(O)cc1F [Compound 23] | – | 45 (≈ 17.3 µg/mL) | 40 to 62 | – | inhib. (%) mtDXPS (mtDXPS): n.i.
16 | O=C(Cc1c[nH]c2ccccc12)N/N=C/c1ccc(C(F)(F)F)nc1 [Compound 4] | – | – | – | – | inhibition at 200 µM (mtDXPS): 25%; inhib. (%) drDXPS (drDXPS [2]; at 120 μM): n.i.
17 | CCN(CC)c1ccc(/C=N/NC(=O)c2cccs2)c(O)c1 [Compound 21] | – | 70 (≈ 22.2 µg/mL) | 6 | 11 | –
18 | CC(C)(C)OC(=O)N[C@@H](Cc1ccccc1)C(=O)N/N=C/c1ccc2cc[nH]c2c1 [Compound 37] | 60 | – | 40 | 3 | –
19 | O=C(COc1ccc(Cl)cc1Cl)N/N=C/c1ccc(Br)cn1 [Compound 10] | 21 | – | 14 | – | inhibition at 200 µM (mtDXPS): 32%
20 | O=C(CCCOc1ccc(Cl)cc1Cl)N/N=C/c1ncc[nH]1 [Compound 12] | 30 | – | 33 | 9 | –
